# Assay results as given in patent US8828678B2, “Self-immolative probes for enzyme activity detection” (Enzo Life Sciences, Inc., priority 2010, dated 2014).
# Tests used:
# [1] = tested on: HeLa cells; test: Combined detection of hypoxia and redox status in live cells by fluorescent microscopy; assay type: cell-based, human; conditions: 5 μM; all four hypoxic samples (anoxia, CoCl2, DFO, DMOG)
# Procedure: HeLa and U-2 OS cells were cultured as described in Example 7. Stock solutions of CD-1 and CD-5 and various hypoxia inducers were prepared and stored as described in Examples 7 and 8. Additionally, 5 mM stock solutions (5000×) of 2′,7′-dichloro-fluorescein diacetate (DCFDA, an indicator of global ROS generation) and dihydroethidium (DHE, specific indicator of superoxide generation) were made in anhydrous DMF. DMSO was avoided, since this solvent is a hydroxyl radical scavenger and its presence may affect ROS/RNS production in cellular systems. The following stocks of ROS inducers were prepared in DMF: 10 mM pyocyanin (general ROS generating compound, 100×), 20 mM antimycin A (general ROS inducer, 400×), 50 mM pyrogallol (a superoxide radical generator, 1000×), 1 mM t-butyl hydroperoxide (TBHP, peroxide radical inducer, 10,000×). ROS probes and inducers were aliquoted and stored at −80° C.
# The day before the experiment, the cells were seeded on 4-well microscope slides (Cel-Line™ Brand, Portsmouth, N.H.) at a density 1×10^4 cells/well (2×10^4 cells/cm^2). On the day of the experiment, the cells were preloaded with both hypoxia probe (5 μM final concentration in cell culture medium) and ROS detecting reagent with suitable spectral characteristics. Two ROS-detecting probes, DCFDA and DHE, were used in a pilot experiment in conjunction with hypoxia self-immolative probes. The hydrolyzed product of DCFDA, DCFH, is considered to be a general indicator of ROS, reacting with H2O2 (in the presence of peroxidases), ONOO^−, lipid hydroperoxides, and hydroxyl radicals. The oxidized product can be detected by strong fluorescence emission at around 525 nm when excited at around 488 nm. Because H2O2 is a secondary product of O2.^−, DCFH fluorescence has been used to implicate O2.^− production. The direct reaction of DHE with O2.^− yields a very specific fluorescent product, requiring no conversion to H2O2. The product of the DHE reaction with O2.^− fluoresces strongly at around 600 nm when excited at 500-530 nm.
# Tested pairs of the probes were as follows: CD-5 with DCFDA or DHE, and CD-1 with DHE. A hypoxic state was induced in the cells as described in Example 7. Control slides were singly-stained with hypoxia or ROS-detecting probes only. Additional slides were treated with different general and specific ROS inducers and stained with ROS-detecting probes to control ROS staining. Post-treatment, the slides were washed twice with PBS, coverslipped and visualized using an Olympus BX-51 fluorescence microscope and a DAPI filter set (350 ex/470em) for CD-5, an FITC filter set (490ex/525em) for CD-1 or for total ROS detection reagent, and an orange filter set (550ex/620em) for HE.
# [2] = tested on: Jurkat cells; test: Combined detection of hypoxia and superoxide in live cells by flow cytometry; assay type: cell-based, human; conditions: CD-1 5 μM in combination with superoxide detection reagent, flow cytometry
# Procedure: HeLa, U-2 OS, and Jurkat cell lines were cultured as described in Examples 7 and 9. Stock solutions of the probes and inhibitors were prepared as described in Examples 7 and 10.
# The day before the experiment, HeLa and U-2 OS cells were seeded in 6-well tissue culture plates at a density of 5×10^5 cells/well. Jurkat cells were collected in logarithmic phase of growth and aliquoted at a density of 5×10^5 cells/sample. On the day of the experiment, the cells were preloaded with either hypoxia or ROS-detecting probes only or with the combination of hypoxia and ROS-detecting probes with compatible spectral characteristics. Samples stained with single hypoxia probes or with two ROS-detecting probes were made to validate data obtained with the combination of hypoxia and redox probes. The probes used in the experiment and their final concentrations in cell culture medium were as follows: CD-1(5 μM) and CD-6 (1 μM), DCFDA, peroxide/peroxynitrite/hydroxyl detection probe and HE, specific superoxide detection reagent (1 μM for both redox probes). Hypoxia was induced in the cells as described in Example 7. Additionally, cells were treated with different general and specific ROS inducers and stained with ROS-detecting probes to control ROS production and staining. Post-treatment, the adherent cells (HeLa and U-2 OS) were collected by trypsinization, re-suspended in 0.5 mL of fresh PBS and analyzed using flow cytometry. Jurkat cells were analyzed without washing. Flow cytometry experiments were performed using an FACS Calibur benchtop flow cytometer (BD Biosciences) equipped with a blue (488 nm) laser, and the fluorescence was recorded in the FITC (530/30 filter), PE (585/42 filter) and PerCP (670 LP filter) channels. Data were collected uncompensated, also compensation corrections were performed using unstained cells, and cells stained with each single dye separately (CD-1, CD-6, DCFDA or HE). To quantify data, quadrant gates were set using untreated samples.
structure (smiles),measurement,setting,value
O=C(Nc1ccc2c(c1)Oc1cc(NC(=O)N3CCOCC3)ccc1C21OC(=O)c2ccccc21)OCc1ccc([N+](=O)[O-])cc1 (centres unmarked) [CD-1],"hypoxia probe fluorescent signal in hypoxic HeLa cells, multiplexed with ROS dyes",[1],bright fluorescent signal
same,population of green positive cells in hypoxia-induced Jurkat samples,[2],increased population of green positive cells
